In patent US8729047B2, “Compositions for inhibiting redox-sensitive GTPases” (Board of Regents, The University of Texas System, priority 2010, dated 2014):

Columns and labels:
HME-C20S RhoC cells = test: Matrigel invasion (cell motility) assay; type: cell-based, human; conditions: FIG. 14A
Text: (§1) FIG. 14. Determination of cell invasiveness in the presence and absence of thiopurines and/or redox agents. […] Western blot analysis representing the total expression of RhoC in these cells also is shown. (B) Experimental procedures for the determination of the time-dependent motility of cells using the QCM Cell Invasion Assay kit in the presence and absence of 6-TG and DETA/NO are described elsewhere herein.
(§2) The top chamber of a Transwell filter (6.5 mm with 8 μm pores, Costar; Corning, N.Y.) was coated with a 10 μL aliquot of 10 mg/mL Matrigel, and the lower chamber of the Transwell was filled with either serum-free or serum-containing media. Sample cells were prepared to resuspend cells in a serum-free medium with 0.1% BSA at a concentration of 4×10^5 cells/mL. […] The Transwell filters were fixed with methanol, stained with haematoxylin and eosin, and cells in the serum-containing samples were counted. The number of cells that had invaded the serum-free, medium-containing lower chambers was used as a control background.

SUM149 cells = test: Matrigel invasion (cell motility) assay; type: cell-based, human; conditions: FIG. 14A
Text: as §1, §2

HCCLM3 cells = test: QCM Cell Invasion Assay, time-dependent motility; type: cell-based, human; conditions: 6-TG in combination with a NO donor for 3 days; FIG. 14B
Method: (§3) FIG. 14. Determination of cell invasiveness in the presence and absence of thiopurines and/or redox agents.
(§4) The Colorimetric-based QCM Cell Invasion Assay kit (Millipore, Billerica, Mass.) was used for the time-dependent cell migration assay of SUM149, SW480, and HCCLM3 cells. Serum-free sample cells (2×10^5 cells/mL) were prepared as indicated in the section of the matrigel invasion assay. The serum-free sample cells (0.25 mL) were loaded to the rehydrated upper chamber. […] Serum-free or serum-containing media (0.5 mL) was added to the lower chamber. The plate covered was then incubated for one to four days at 37° C. in a 10% CO2 incubator. […] The fraction of cells migrated from the upper chamber to the lower chamber was then measured colorimetrically according to the procedure provided by the manufacture.

SW480 cells = test: QCM Cell Invasion Assay, time-dependent motility; type: cell-based, human; conditions: 6-TG in combination with a NO donor for 3 days; FIG. 14B
Method: as §3, §4

RhoC = RhoC (Homo sapiens, UniProt P08134); test: Co-IP mass spectrometry of thioguanine nucleotide disulfide adduct; type: cell-based; design: endogenous in cells; host or cells: SUM149, SUM102, SW480, HCCLM3 (endogenous); HME-RhoC (transfected with wild type RhoC)
RhoC, sequence (P08134 whole entry): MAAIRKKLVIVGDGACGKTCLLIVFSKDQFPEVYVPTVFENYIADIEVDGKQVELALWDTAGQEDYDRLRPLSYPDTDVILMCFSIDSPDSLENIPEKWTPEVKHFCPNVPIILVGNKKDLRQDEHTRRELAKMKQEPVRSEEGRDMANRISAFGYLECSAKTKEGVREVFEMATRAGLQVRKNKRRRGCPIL
Method: FIG. 6. Detection of unusual 6-TGNP adduct from HME-RhoC cells. […] A monoclonal RhoC antibody (Biocompare, South San Francisco, Calif.) and a “Mammalian Co-Immunoprecipitation Kit” (Pierce) were used for the analyses of the RhoC 6-TGNP interaction in HME-RhoC cells. The immunoprecipitated RhoC sample was suspended in 50% methanol:0.1% formic acid. The protein portion and RhoC-released nucleotide were separated by a brief centrifugation (3000×g for 5 min). The protein portion from the immunoprecipitated RhoC was resuspended in the assay buffer (pH 7.5), digested with trypsin for 10 h, and analyzed with MALDI-TOF tandem mass spectrometry. The MALDI-TOF peak at 1476.6 Da represents peptide-6-TGDP adduct; TC^20LLIVFSK-6-TGDP (SEQ ID NO:4).
FIG. 15. Detection of unusual 6-TGNP adduct from SUM and HME-RhoC cells. The ESI-MS and MS/MS methods to detect and identify a chemically modified RhoC residue are described elsewhere herein. […] The left and right columns, respectively, denote any of the RhoC samples taken from SUM and HME cells. As indicated, a mixture of samples taken from untreated SUM149 and SUM102 cells was used as a control for the experiment shown in the left column. For the right column, a mixture of samples taken from HME-RhoC and […] cells was used as a control. (B) A MS/MS analysis was performed with the ESI-MS sample of 6-TG-treated SUM149 cells to identify a biomolecule that have a mass of 1481.6 Da. […]
Cell lysates in an extraction buffer were incubated with a monoclonal anti-RhoC antibody precoupled to glutathione-agarose beads. […] The protein portion from the immunoprecipitated RhoC was resuspended in a buffer containing 1 mM EDTA and 0.1 mM DTPA in 50 mM TrisHCl (pH 7.4), then digested with trypsin for 10 h, and analyzed with electrospray mass spectrometry (ESI-MS) and tandem mass spectrometry (MS/MS) in the positive ion mode ([molecular mass+H]^+).

RhoA = target: T1, RhoA (Homo sapiens, UniProt P61586); conditions: determined previously; read-out: trueKD GDP; cited from earlier work
T1 construct: made in house; host or cells: E. coli
T1 sequence (P61586 whole entry, species assumed): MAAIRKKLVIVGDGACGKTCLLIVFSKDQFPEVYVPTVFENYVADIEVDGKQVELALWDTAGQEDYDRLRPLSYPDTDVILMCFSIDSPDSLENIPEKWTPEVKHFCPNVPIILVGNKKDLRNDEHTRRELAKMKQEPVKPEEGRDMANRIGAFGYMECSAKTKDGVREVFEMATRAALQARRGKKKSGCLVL

Rac1 = Rac1 (Homo sapiens, UniProt P63000); design: made in house; host or cells: E. coli; conditions: known value (Morgan et al.); read-out: trueKD for GDP; cited from earlier work

For Nc1nc2nc[nH]c2c(=S)[nH]1 [6-TG, 6-thioguanine], the “effect on motility compared with SUM149 and HME-RhoC cells” value (HME-C20S RhoC cells; 6-TG alone, three days) was “insignificant”, the “effect on C20S RhoC activity and invasive cell motility” value (HME-C20S RhoC cells; 6-TG with a NO donor, compared with either alone) was “lack of a significant effect” and the cell motility (SUM149 cells; 6-TG 1 μM alone, three or more consecutive days) was “gradual but significant diminution of cell motility”. For the same molecule, the invasive cell motility (SUM149 cells; 6-TG 1 μM with DETA/NO (or GSNO) 10 μM, three days) was “complete termination of the invasive cell motility”, the “most of the invasive motility” value (HCCLM3 cells) was “terminated” and the “most of the invasive motility” value (SW480 cells) was “terminated”. For the same molecule, the “peak assigned to RhoC-6-TGDP adduct” value (RhoC; 6-TG in the presence of a NO donor) was “increased”, the “peptide-6-TGDP adduct (TC20LLIVFSK-6-TGDP) by MALDI-TOF” value (RhoC; HME-RhoC cells, 6-TG 1 μM every 48 h, 5 days, FIG. 6) was “detected” and the “RhoC-derived peptide-6-TGDP disulfide adduct mass peak by ESI-MS” value (RhoC; co-IPed RhoC from SUM149 and HME-RhoC cells treated with 6-TG, FIG. 15A) was “commonly exhibited”.

For Nc1nc2c(ncn2[C@@H]2O[C@H](COP(=O)(O)OP(=O)(O)O)[C@@H](O)[C@H]2O)c(=O)[nH]1 [GDP], the Kd (RhoA) is given as 13 µM and the Kd (Rac1) is given as 1.8 µM.
